Test results as given in patent US7553864B2, “Compounds for the treatment of inflammatory disorders and microbial diseases” (Schering Corporation, priority 2005, dated 2009).

System: LpxC enzyme
Test: LpxC enzyme assay (RapidFire high-throughput mass spectrometry)
Assay type: biochemical
Method: The standard LpxC assay consists of 0.2 nM LpxC enzyme, 1.0 μM UDP-3-O—(R-3-hydroxymyristoyl)-N-acetylglucosamine, and test compound, in assay buffer and 2% DMSO. Assay buffer is comprised of 25 mM HEPES, pH 7.3, 150 mM NaCl, 2.0 mM DTT, and 0.01% BSA. The enzyme reaction is carried out in a 96-well assay plate, in a final volume of 102 μL. Solutions of test compounds are prepared in 100% DMSO. Reaction additions, in order, are (1) 2.0 μL compound solution, (2) 80 μL of assay buffer, (3) 10 μL of 10 μM UDP-3-O—(R-3-hydroxymyristoyl)-N-acetylglucosamine (in assay buffer) and, (4) 10 μL of LpxC enzyme (20 nM in assay buffer) to initiate the reaction. In positive control reactions, addition (1) has 2.0 μL of 100% DMSO (without compound); these reactions are used as the total signal (TSB) value. Reactions are incubated at room temperature for 60 minutes when 10 μL of 1 N HCl is added to stop the reaction. The plate is shaken by hand for 10 seconds to ensure complete quenching. Assay plates are sealed with foil tape, and stored at −80° C. for 24-48 hr prior to analysis.
The concentrations of substrate and product in the reaction mixtures are determined with BioTrove's proprietary RapidFire™ high-throughput mass spectrometry (HTMS). Assay mixtures are partially purified with reverse phase chromatography, where they are washed with water containing 5 mM ammonium formate and eluted onto the mass spectrometer in 80% acetonitrile, 20% water, and 5 mM ammonium formate. The mass spectrometry peak areas of the substrate and product are measured to determine the concentration of these analytes. The assay signal is the percentage of substrate that is converted to product. Percent inhibition, % I, in test samples is determined from the following equation: […]

[1] = concentration 0.10 (unit not given)
[2] = concentration 0.20 (unit not given)
[3] = concentration 0.39 (unit not given)
[4] = concentration 0.78 (unit not given)
[5] = concentration 1.56 (unit not given)
[6] = concentration 3.13 (unit not given)
[7] = concentration 6.25 (unit not given)
[8] = concentration 12.50 (unit not given)
[9] = concentration 25 (unit not given)
[10] = concentration 50 (unit not given)

Row | Compound | LpxC enzyme assay rating (% inhibition at indicated concentrations) [1] | LpxC enzyme assay rating (% inhibition at indicated concentrations) [2] | LpxC enzyme assay rating (% inhibition at indicated concentrations) [3] | LpxC enzyme assay rating (% inhibition at indicated concentrations) [4] | LpxC enzyme assay rating (% inhibition at indicated concentrations) [5] | LpxC enzyme assay rating (% inhibition at indicated concentrations) [6] | LpxC enzyme assay rating (% inhibition at indicated concentrations) [7] | LpxC enzyme assay rating (% inhibition at indicated concentrations) [8] | LpxC enzyme assay rating (% inhibition at indicated concentrations) [9] | LpxC enzyme assay rating (% inhibition at indicated concentrations) [10]
1 | CNC(=O)[C@H](O)[C@@H](O)C(=O)Nc1ccc(C#Cc2ccccc2)cc1 [Compound 25] | C (less than 10% inhibition) | C (less than 10% inhibition) | C (less than 10% inhibition) | C (less than 10% inhibition) | C (less than 10% inhibition) | C (less than 10% inhibition) | C (less than 10% inhibition) | B (10-30% inhibition) | C (less than 10% inhibition) | C (less than 10% inhibition)
2 | CNC(=O)[C@H](O)[C@@H](O)C(=O)n1ccc2cc(C#Cc3ccccc3)ccc21 [Compound 26] | C (less than 10% inhibition) | C (less than 10% inhibition) | C (less than 10% inhibition) | C (less than 10% inhibition) | C (less than 10% inhibition) | C (less than 10% inhibition) | C (less than 10% inhibition) | B (10-30% inhibition) | C (less than 10% inhibition) | B (10-30% inhibition)
3 | CNC(=O)[C@H](O)[C@@H](O)C(=O)Nc1ccc(-c2ccccc2)cc1 [Compound 27] | C (less than 10% inhibition) | C (less than 10% inhibition) | C (less than 10% inhibition) | C (less than 10% inhibition) | C (less than 10% inhibition) | B (10-30% inhibition) | B (10-30% inhibition) | B (10-30% inhibition) | B (10-30% inhibition) | B (10-30% inhibition)
4 | CNC(=O)[C@H](O)[C@@H](O)C(=O)Nc1ccc(-c2ccc(C(F)(F)F)cc2)cc1 [Compound 28] | C (less than 10% inhibition) | C (less than 10% inhibition) | C (less than 10% inhibition) | C (less than 10% inhibition) | C (less than 10% inhibition) | C (less than 10% inhibition) | C (less than 10% inhibition) | B (10-30% inhibition) | C (less than 10% inhibition) | C (less than 10% inhibition)
5 | CNC(=O)[C@H](O)[C@@H](O)C(=O)N1CCN(c2cccc3ccccc23)CC1 [Compound 29] | C (less than 10% inhibition) | C (less than 10% inhibition) | C (less than 10% inhibition) | C (less than 10% inhibition) | B (10-30% inhibition) | B (10-30% inhibition) | B (10-30% inhibition) | B (10-30% inhibition) | B (10-30% inhibition) | B (10-30% inhibition)
